Assay [1] concerns the target IDH1 R132C (Homo sapiens (Human), UniProt O75874, R132C). Description: Biochemical assay for inhibition of mutant IDH1 R132C. Conditions: tested in triplet. From the text: (§1) The present disclosure provides a biochemical assay method for detecting the IDH inhibition and selectivity of the compounds by detecting IDH enzyme activity directly.
(§2) Wild-type IDH enzyme could convert NADP^+ to NADPH when it catalyzes the α-KG producing reaction. Mutant IDH enzyme could convert NADPH to NADP^+ when it catalyzes the D-2-HG producing reaction. So the activity of wild-type and mutant IDH1/2 could be measured by monitoring NADPH level change: in the reaction catalyzed by wild-type IDH1/2, the newly generated NADPH is utilized instantly by coupled diaphorase-resazurin reaction to generate resorufin which is fluorescent (at Excitation 544 nm, Emission 590 nm) and thus NADPH is monitored indirectly; while in the reaction catalyzed by mutant IDH1/2, NADPH is directly monitored as it is fluorescent (at Excitation 340 nm, Emission 460 nm). By monitoring the change of NADPH level in the reaction, the enzyme activity could be determined rapidly and efficiently, IC50 of a compound could also be assayed.
(§3) The test compounds were prepared into 50 mM stock solutions in DMSO and stored at −20° C. Each test compound stock was further diluted to obtain a 100× stock solution at a concentration of 200 μM, 100 μM, 50 μM, 25 μM, 12.5 jμM, 6.25 μM and 3.125 μM, respectively, for the final use on the day of test.
(§4) Inhibition of Mutant IDHJ (R132H or R132C):
(§5) Solution A was prepared by combining 1 M Tris-HCl pH7.5 (300 μL), 5 M NaCl (450 μL), 1 M MgCl2 (150 μL), 1 M DTT (15 μL), 20 mg/mL BSA (37.5 μL), 20 mM NADPH (20 μL), and 0.5 mM α-KG (40 μL), followed by adding deionized water to a final volume of 15 mL.
(§6) Reaction buffer was prepared by combining 1 M Tris-HCl pH 7.5 (200 μL), 5 M NaCl (300 μL), 1 M MgCl2 (100 μL), 1 M DTT (10 μL) and 20 mg/mL BSA (25 μL), followed by adding deionized water to a final volume of 10 mL.
(§7) Solution B was prepared by combining the reaction buffer (5 mL) and […] IDH1-R132H (5.21 μL) or 107 μM IDH1-R132C (4.67 μL).
(§8) 148 μL Solution A was added into each sample well of a 96-well plate P1, and then 2 μL of the test compound solution at each concentration and 2 μL of DMSO (negative control/blank) were added into individual sample well respectively. 50 μL of Solution B was added into each of the sample wells having test compounds and one sample well having DMSO only, and 50 μL of reaction buffer was added into another sample well having DMSO only, respectively. P1 was put into BioTek Synergy H4 Microplate reader (BioTek Instruments Inc., Winooski, U.S.), and the program was set as follows: 37° C., shake plate 5 seconds, run kinetic mode, total detection time 20 min, detection intervals 40 seconds, detection mode fluorescence (at Excitation 340 nm, Emission 460 nm). The data were exported, the relative enzyme activity and the half-maximal inhibitory concentration (IC50) for the test compound were calculated. Relative enzyme activity was calculated as the absolute value of the slope of the Emission 460 reads of each well plotted against time (which represents the conversion rate of ca-KG to 2-HG through IDH1 modulated utilization of NADPH). The Dose-response curve was drawn and the IC50 was calculated via fitting. The IDH inhibition and selectivity of each test compound can be evaluated according to the effect of the compounds on the IDH enzyme activity.
(§9) The IDH inhibition activity of the compounds were assessed according to Test 5 of the Biological evaluation section. The test for mutant IDH1 R132H/R132C inhibition of each compound was carried out in triplet. For IDH1 R132H, the enzyme activity of exemplary Compounds 16, 21, 22, 23, 24 and 31 is plotted as a function of logarithm of the concentration of the compound in FIGS. 8A-8C, 9A-9C, 10A-10C, 11A-11C, 12A-12C and 13A-13C, respectively. […]

Assay [2] has as its target IDH1 R132H (Homo sapiens (Human), UniProt O75874, R132H). Description: Biochemical assay for inhibition of mutant IDH1 R132H. The following applies: tested in triplet.
From the text: as §1, §2, §3, §4, §5, §6, §7, §8, §9

Chain of IDH1 R132C (O75874 whole entry R132C): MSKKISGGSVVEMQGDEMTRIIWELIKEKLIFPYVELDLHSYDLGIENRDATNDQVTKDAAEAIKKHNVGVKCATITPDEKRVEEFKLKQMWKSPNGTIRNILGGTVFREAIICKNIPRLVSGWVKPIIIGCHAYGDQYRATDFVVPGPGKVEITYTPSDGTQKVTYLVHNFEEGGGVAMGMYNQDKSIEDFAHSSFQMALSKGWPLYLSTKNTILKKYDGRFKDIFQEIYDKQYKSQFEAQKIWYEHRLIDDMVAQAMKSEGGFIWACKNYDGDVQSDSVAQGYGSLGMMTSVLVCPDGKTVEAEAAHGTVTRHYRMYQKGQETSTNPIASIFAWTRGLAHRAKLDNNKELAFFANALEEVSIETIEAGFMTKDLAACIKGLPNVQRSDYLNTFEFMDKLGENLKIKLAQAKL
Chain of IDH1 R132H (O75874 whole entry R132H): as the sequence (O75874 whole entry R132C) above, with C132H counted along it

As to `CCN1Cc2c(ccnc2N[C@@H](C)c2ccc(Oc3ccc(C)cc3)cc2)C1=O` [Compound 16, (S)-2-ethyl-4-(1-(4-(p-tolyloxy)phenyl)ethylamino)-2,3-dihydro-1H-pyrrolo [3,4-c]pyridin-1-one], the IC50 in assay [1] was below 1500 nM; in assay [2] it was below 1000 nM.

Turning to `CCN1Cc2c(ccnc2N[C@@H](C)c2ccc(Oc3ccccc3)c(F)c2)C1=O` [Compound 23, (S)-2-ethyl-4-((1-(3-fluoro-4-phenoxyphenyl)ethyl)amino)-2,3-dihydro-1H-pyrrolo[3,4-c]pyridin-1-one], the half-inhibitory concentration (IC50) in assay [1] is below 1500 nM; in assay [2] it was below 1000 nM.
